Reference: the kinase profiling compilation of Christmann-Franck et al. (2016)

Key:
Experiment in all cases: SelectScreen, TR FRET
Settings in all cases: compound 5.0 µM
ABL1 (human) = ABL1 (human) (UniProt P00519)
[1] = test system: ABL1 (human), P00519 [G250E]
ADRBK1 (human) = ADRBK1 (human) (UniProt P25098)
ALK (human) = ALK (human) (UniProt Q9UM73)
BTK (human) = BTK (human) (UniProt Q06187)
CDK1 CCNB1 (human) = CDK1 CCNB1 (human) (UniProt P06493+P14635)
CDK2 CCNA2 (human) = CDK2 CCNA2 (human) (UniProt P24941+P20248)
CLK2 (human) = CLK2 (human) (UniProt P49760)
CSK (human) = CSK (human) (UniProt P41240)
[2] = test system: EGFR (human), P00533 [L858R]
EPHA5 (human) = EPHA5 (human) (UniProt P54756)
IGF1R (human) = IGF1R (human) (UniProt P08069)
KDR (human) = KDR (human) (UniProt P35968)
KIT (human) = KIT (human) (UniProt P10721)
LCK (human) = LCK (human) (UniProt P06239)
LYN (human) = LYN (human) (UniProt P07948)
MAP4K5 (human) = MAP4K5 (human) (UniProt Q9Y4K4)
MAPK1 (human) = MAPK1 (human) (UniProt P28482)
MAPK12 (human) = MAPK12 (human) (UniProt P53778)
MAPK3 (human) = MAPK3 (human) (UniProt P27361)
MAPKAPK5 (human) = MAPKAPK5 (human) (UniProt Q8IW41)
MET (human) = MET (human) (UniProt P08581)
MINK1 (human) = MINK1 (human) (UniProt Q8N4C8)
NEK1 (human) = NEK1 (human) (UniProt Q96PY6)
PAK3 (human) = PAK3 (human) (UniProt O75914)
PASK (human) = PASK (human) (UniProt Q96RG2)
PHKG2 (human) = PHKG2 (human) (UniProt P15735)
PRKCA (human) = PRKCA (human) (UniProt P17252)
PRKCD (human) = PRKCD (human) (UniProt Q05655)
PRKCG (human) = PRKCG (human) (UniProt P05129)
PRKCH (human) = PRKCH (human) (UniProt P24723)
PRKD2 (human) = PRKD2 (human) (UniProt Q9BZL6)
PTK2 (human) = PTK2 (human) (UniProt Q05397)
PTK6 (human) = PTK6 (human) (UniProt Q13882)
ROCK2 (human) = ROCK2 (human) (UniProt O75116)
SGK2 (human) = SGK2 (human) (UniProt Q9HBY8)
SRC (human) = SRC (human) (UniProt P12931)
STK24 (human) = STK24 (human) (UniProt Q9Y6E0)
STK4 (human) = STK4 (human) (UniProt Q13043)
TAOK2 (human) = TAOK2 (human) (UniProt Q9UL54)

Sequence of KIT (human) (P10721 whole entry, looked up): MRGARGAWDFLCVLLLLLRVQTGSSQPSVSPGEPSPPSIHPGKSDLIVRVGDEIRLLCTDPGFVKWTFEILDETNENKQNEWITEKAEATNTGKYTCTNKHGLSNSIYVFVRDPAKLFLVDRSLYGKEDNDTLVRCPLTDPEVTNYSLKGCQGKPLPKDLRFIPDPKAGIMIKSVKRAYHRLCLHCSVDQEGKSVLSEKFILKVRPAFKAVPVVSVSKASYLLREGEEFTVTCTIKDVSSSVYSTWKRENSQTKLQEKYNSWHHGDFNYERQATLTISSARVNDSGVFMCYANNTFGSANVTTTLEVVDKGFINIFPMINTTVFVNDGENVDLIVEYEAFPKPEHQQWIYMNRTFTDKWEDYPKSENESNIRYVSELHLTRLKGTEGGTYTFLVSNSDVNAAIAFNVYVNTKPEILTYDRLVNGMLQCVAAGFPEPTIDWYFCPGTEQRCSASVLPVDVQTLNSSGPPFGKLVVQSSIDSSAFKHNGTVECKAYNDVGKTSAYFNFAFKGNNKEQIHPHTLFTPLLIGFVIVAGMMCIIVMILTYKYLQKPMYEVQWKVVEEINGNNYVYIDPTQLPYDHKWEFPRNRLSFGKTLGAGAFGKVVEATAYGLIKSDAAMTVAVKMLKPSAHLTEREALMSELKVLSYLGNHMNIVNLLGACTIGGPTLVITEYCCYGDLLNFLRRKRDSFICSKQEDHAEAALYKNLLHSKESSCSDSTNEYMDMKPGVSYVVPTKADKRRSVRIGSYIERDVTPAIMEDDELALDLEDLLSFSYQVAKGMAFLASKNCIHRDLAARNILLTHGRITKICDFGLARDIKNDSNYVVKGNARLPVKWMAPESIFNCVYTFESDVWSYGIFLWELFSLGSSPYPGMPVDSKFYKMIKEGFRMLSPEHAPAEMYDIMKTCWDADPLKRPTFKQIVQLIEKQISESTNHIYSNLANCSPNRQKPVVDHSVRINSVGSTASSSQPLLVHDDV
Sequence of MAPK1 (human) (P28482 whole entry, looked up): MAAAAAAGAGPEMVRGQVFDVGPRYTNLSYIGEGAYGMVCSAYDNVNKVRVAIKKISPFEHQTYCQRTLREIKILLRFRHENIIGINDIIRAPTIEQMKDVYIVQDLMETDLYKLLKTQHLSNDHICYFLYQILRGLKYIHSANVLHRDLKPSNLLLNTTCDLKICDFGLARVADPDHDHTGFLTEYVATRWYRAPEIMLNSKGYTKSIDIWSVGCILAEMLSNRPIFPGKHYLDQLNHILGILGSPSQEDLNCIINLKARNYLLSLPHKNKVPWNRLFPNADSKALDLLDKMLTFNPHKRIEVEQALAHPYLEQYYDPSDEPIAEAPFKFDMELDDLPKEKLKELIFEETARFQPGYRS
Sequence of MINK1 (human) (Q8N4C8 whole entry, looked up): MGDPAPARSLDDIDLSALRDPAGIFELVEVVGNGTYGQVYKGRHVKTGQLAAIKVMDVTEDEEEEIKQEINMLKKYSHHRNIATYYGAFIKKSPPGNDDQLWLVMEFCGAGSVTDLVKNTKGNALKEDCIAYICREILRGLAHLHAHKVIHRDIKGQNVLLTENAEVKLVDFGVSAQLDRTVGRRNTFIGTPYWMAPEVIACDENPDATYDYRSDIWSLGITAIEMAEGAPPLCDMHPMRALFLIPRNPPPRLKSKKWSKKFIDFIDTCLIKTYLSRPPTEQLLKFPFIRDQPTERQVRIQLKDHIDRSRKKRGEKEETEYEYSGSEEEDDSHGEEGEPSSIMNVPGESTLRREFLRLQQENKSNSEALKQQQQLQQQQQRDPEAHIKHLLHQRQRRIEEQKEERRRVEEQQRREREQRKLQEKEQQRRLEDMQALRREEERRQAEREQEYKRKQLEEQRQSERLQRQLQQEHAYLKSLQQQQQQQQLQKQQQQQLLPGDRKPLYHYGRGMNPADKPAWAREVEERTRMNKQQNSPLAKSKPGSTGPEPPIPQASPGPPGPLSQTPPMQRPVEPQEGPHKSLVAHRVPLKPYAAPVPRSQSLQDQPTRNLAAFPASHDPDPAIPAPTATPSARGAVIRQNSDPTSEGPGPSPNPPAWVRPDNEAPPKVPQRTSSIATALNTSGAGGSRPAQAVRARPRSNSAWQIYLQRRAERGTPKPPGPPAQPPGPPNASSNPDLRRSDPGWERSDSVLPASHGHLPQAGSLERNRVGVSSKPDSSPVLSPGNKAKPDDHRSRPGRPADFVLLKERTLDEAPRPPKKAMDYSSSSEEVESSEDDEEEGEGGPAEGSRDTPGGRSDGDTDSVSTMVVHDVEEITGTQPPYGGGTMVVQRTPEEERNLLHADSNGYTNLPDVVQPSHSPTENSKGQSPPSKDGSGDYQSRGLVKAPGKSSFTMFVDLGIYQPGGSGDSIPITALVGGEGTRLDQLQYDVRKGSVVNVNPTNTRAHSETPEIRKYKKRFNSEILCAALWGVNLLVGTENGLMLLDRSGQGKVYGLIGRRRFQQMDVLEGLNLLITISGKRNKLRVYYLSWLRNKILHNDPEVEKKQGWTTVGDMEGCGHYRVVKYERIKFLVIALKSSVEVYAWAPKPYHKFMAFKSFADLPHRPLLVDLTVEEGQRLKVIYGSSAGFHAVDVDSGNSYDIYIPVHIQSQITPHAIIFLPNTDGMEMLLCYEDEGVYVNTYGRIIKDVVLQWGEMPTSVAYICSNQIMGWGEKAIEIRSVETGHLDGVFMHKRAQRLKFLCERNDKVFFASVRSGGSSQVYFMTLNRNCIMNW
Sequence of LYN (human) (P07948 whole entry, looked up): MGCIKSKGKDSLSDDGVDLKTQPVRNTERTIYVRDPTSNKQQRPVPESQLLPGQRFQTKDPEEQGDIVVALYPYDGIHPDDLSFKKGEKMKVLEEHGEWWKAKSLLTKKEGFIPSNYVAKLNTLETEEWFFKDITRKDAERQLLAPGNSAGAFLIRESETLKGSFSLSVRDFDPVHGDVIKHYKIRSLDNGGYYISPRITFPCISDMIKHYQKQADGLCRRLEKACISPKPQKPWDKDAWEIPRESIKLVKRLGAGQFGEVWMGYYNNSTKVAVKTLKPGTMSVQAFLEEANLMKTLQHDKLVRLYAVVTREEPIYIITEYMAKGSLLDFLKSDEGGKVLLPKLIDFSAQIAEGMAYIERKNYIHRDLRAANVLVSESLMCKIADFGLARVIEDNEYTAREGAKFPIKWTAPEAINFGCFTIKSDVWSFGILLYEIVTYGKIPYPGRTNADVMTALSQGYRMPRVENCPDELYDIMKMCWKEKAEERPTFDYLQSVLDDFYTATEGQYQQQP
Sequence of STK4 (human) (Q13043 whole entry, looked up): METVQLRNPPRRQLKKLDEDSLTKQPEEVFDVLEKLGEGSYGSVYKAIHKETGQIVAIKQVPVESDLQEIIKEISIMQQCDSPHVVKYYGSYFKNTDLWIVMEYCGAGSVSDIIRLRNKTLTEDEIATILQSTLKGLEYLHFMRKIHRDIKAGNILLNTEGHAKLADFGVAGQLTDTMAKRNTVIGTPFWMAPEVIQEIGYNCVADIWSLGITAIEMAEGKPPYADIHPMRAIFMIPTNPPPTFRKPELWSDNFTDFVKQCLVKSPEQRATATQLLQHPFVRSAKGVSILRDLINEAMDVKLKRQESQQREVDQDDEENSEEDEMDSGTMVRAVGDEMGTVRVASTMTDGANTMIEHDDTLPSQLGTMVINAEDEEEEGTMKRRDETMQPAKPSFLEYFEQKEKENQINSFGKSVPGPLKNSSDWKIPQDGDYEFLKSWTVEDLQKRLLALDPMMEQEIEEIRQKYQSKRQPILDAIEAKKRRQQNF
Sequence of ADRBK1 (human) (P25098 whole entry, looked up): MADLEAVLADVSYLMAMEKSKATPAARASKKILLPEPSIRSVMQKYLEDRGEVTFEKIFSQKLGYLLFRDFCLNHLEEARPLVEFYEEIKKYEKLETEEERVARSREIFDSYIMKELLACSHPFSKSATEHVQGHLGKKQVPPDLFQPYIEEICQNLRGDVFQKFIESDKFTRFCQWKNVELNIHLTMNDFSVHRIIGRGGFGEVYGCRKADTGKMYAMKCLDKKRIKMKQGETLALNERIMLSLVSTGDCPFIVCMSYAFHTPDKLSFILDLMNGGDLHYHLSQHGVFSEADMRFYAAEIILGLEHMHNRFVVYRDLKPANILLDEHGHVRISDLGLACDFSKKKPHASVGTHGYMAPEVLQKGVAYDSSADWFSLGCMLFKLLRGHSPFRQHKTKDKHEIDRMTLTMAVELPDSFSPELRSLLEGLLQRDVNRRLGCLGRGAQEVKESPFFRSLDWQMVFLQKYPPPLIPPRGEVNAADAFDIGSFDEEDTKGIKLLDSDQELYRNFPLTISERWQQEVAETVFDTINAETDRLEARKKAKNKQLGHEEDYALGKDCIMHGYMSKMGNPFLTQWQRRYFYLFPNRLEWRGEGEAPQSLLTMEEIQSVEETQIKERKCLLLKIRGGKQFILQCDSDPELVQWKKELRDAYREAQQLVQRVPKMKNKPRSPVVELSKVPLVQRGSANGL
Sequence of CSK (human) (P41240 whole entry, looked up): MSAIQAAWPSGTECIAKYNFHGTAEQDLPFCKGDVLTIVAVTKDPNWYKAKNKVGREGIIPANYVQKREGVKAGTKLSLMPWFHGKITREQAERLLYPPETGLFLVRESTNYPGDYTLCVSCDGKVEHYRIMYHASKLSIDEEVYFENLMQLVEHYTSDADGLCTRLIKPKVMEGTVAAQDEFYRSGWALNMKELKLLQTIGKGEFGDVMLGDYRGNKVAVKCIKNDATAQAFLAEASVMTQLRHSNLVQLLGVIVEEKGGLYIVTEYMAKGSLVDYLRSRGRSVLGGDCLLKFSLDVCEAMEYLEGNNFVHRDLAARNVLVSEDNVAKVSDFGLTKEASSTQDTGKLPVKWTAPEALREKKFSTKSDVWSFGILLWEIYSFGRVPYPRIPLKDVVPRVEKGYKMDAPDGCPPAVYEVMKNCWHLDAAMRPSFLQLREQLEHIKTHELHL

Nc1cc(C(F)(F)F)c(-c2cc(N3CCOCC3)nc(N3CCOCC3)n2)cn1
inhibition (ABL1 (human)): 3% | inhibition [1]: -4% | inhibition (ADRBK1 (human)): 1% | inhibition (ALK (human)): 1% | inhibition (BTK (human)): 3% | inhibition (CDK1 CCNB1 (human)): 9% | inhibition (CDK2 CCNA2 (human)): 2% | inhibition (CLK2 (human)): 15% | inhibition (CSK (human)): 5% | inhibition [2]: 12% | inhibition (EPHA5 (human)): 0% | inhibition (IGF1R (human)): 1% | inhibition (KDR (human)): 3% | inhibition (KIT (human)): 39% | inhibition (LCK (human)): 7% | inhibition (LYN (human)): 6% | inhibition (MAP4K5 (human)): 10% | inhibition (MAPK1 (human)): 6% | inhibition (MAPK12 (human)): 3% | inhibition (MAPK3 (human)): 7% | inhibition (MAPKAPK5 (human)): -1% | inhibition (MET (human)): 5% | inhibition (MINK1 (human)): 4% | inhibition (NEK1 (human)): 8% | inhibition (PAK3 (human)): -1% | inhibition (PASK (human)): -1% | inhibition (PHKG2 (human)): 3% | inhibition (PRKCA (human)): 4% | inhibition (PRKCD (human)): 4% | inhibition (PRKCG (human)): 5% | inhibition (PRKCH (human)): 4% | inhibition (PRKD2 (human)): 2% | inhibition (PTK2 (human)): 4% | inhibition (PTK6 (human)): -10% | inhibition (ROCK2 (human)): 3% | inhibition (SGK2 (human)): 10% | inhibition (SRC (human)): 10% | inhibition (STK24 (human)): 7% | inhibition (STK4 (human)): 14% | inhibition (TAOK2 (human)): 6%
